Reference: PubChem BioAssay (NCI)
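A five-concentration, 48-hour dose response in 96-well plates underlies each endpoint, interpolated linearly between surrounding concentrations. The concentration for full growth arrest is given as TGI.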

Key:
Test in all cases: NCI anticancer screen, dose series, 48 h
[1] = test system: NCI-H226 lung
[2] = test system: SN12C renal
[3] = test system: OVCAR-5 ovarian
[4] = test system: HCC-2998 colon
[5] = test system: PC-3 prostate
[6] = test system: A498 renal
[7] = test system: MOLT-4 leukemia
[8] = test system: K-562 leukemia
[9] = test system: COLO 205 colon
[10] = test system: SNB-19 CNS
[11] = test system: OVCAR-4 ovarian
[12] = test system: HL-60(TB) leukemia
[13] = test system: SK-MEL-2 melanoma
[14] = test system: OVCAR-3 ovarian
[15] = test system: CAKI-1 renal
[16] = test system: SK-OV-3 ovarian
[17] = test system: UO-31 renal
[18] = test system: TK-10 renal
[19] = test system: HCT-116 colon
[20] = test system: IGROV1 ovarian
[21] = test system: HCT-15 colon
[22] = test system: MDA-MB-231 breast
[23] = test system: M14 melanoma
[24] = test system: MCF7 breast
[25] = test system: CCRF-CEM leukemia
[26] = test system: HOP-62 NSCLC
[27] = test system: RXF 393 renal
[28] = test system: MDA-MB-435
[29] = test system: SF-295 CNS
[30] = test system: NCI-H460 lung
[31] = test system: NCI-H522 lung
[32] = test system: DU-145 prostate
[33] = test system: SK-MEL-5 melanoma
[34] = test system: UACC-257 melanoma
[35] = test system: HS 578T breast
[36] = test system: SNB-75 CNS
[37] = test system: SF-539 CNS
[38] = test system: NCI/ADR-RES ovarian
[39] = test system: BT-549 breast
[40] = test system: MDA-N
[41] = test system: NCI-H23 lung
[42] = test system: SR leukemia
[43] = test system: HT29 colon
[44] = test system: 786-0 renal
[45] = test system: OVCAR-8 ovarian
[46] = test system: HOP-92 NSCLC
[47] = test system: ACHN renal
[48] = test system: SW-620 colon
[49] = test system: UACC-62 melanoma
[50] = test system: KM12 colon
[51] = test system: RPMI-8226 leukemia
[52] = test system: SF-268 CNS
[53] = test system: MALME-3M melanoma
[54] = test system: A549 NSCLC
[55] = test system: EKVX NSCLC
[56] = test system: U251 CNS
[57] = test system: LOX IMVI melanoma
[58] = test system: SK-MEL-28 melanoma

C=C1CCc2ccccc2C1=O
TGI [1]: > 100 µM | TGI [2]: > 100 µM | TGI [3]: > 100 µM | TGI [4]: > 100 µM | TGI [5]: > 100 µM | TGI [6]: > 100 µM | TGI [7]: > 100 µM | TGI [8]: > 100 µM | TGI [9]: > 100 µM | TGI [10]: > 100 µM | TGI [11]: > 100 µM | TGI [12]: > 100 µM | TGI [13]: > 100 µM | TGI [14]: > 100 µM | TGI [15]: > 100 µM | TGI [16]: > 100 µM | TGI [17]: > 100 µM | TGI [18]: > 100 µM | TGI [19]: > 100 µM | TGI [20]: > 100 µM | TGI [21]: > 100 µM | TGI [22]: > 100 µM | TGI [23]: > 100 µM | TGI [24]: > 100 µM | TGI [25]: > 100 µM | TGI [26]: > 100 µM | TGI [27]: > 100 µM | TGI [28]: > 100 µM | TGI [29]: > 100 µM | TGI [30]: > 100 µM | TGI [31]: > 100 µM | TGI [32]: > 100 µM | TGI [33]: > 100 µM | TGI [34]: > 100 µM | TGI [35]: > 100 µM | TGI [36]: > 100 µM | TGI [37]: > 100 µM | TGI [38]: > 100 µM | TGI [39]: > 100 µM | TGI [40]: > 100 µM | TGI [41]: > 100 µM | TGI [42]: 78.9 µM | TGI [43]: > 100 µM | TGI [44]: > 100 µM | TGI [45]: > 100 µM | TGI [46]: > 100 µM | TGI [47]: > 100 µM | TGI [48]: > 100 µM | TGI [49]: > 100 µM | TGI [50]: > 100 µM | TGI [51]: > 100 µM | TGI [52]: > 100 µM | TGI [53]: > 100 µM | TGI [54]: > 100 µM | TGI [55]: > 100 µM | TGI [56]: > 100 µM

CCCCOC(=O)C(=O)C(CC(CC)C(=O)c1ccccc1)C(=O)C=C(C)C (stereo not drawn)
TGI [1]: > 100 µM | TGI [2]: > 100 µM | TGI [3]: > 100 µM | TGI [4]: > 100 µM | TGI [5]: > 100 µM | TGI [7]: > 100 µM | TGI [9]: > 100 µM | TGI [10]: > 100 µM | TGI [11]: > 100 µM | TGI [12]: > 100 µM | TGI [13]: > 100 µM | TGI [14]: > 100 µM | TGI [15]: > 100 µM | TGI [16]: > 100 µM | TGI [17]: > 100 µM | TGI [18]: > 100 µM | TGI [19]: > 100 µM | TGI [20]: > 100 µM | TGI [21]: > 100 µM | TGI [22]: > 100 µM | TGI [23]: > 100 µM | TGI [24]: > 100 µM | TGI [25]: > 100 µM | TGI [26]: > 100 µM | TGI [27]: > 100 µM | TGI [28]: > 100 µM | TGI [29]: > 100 µM | TGI [30]: > 100 µM | TGI [31]: > 100 µM | TGI [32]: > 100 µM | TGI [33]: > 100 µM | TGI [34]: > 100 µM | TGI [35]: > 100 µM | TGI [36]: > 100 µM | TGI [37]: > 100 µM | TGI [38]: > 100 µM | TGI [39]: > 100 µM | TGI [40]: > 100 µM | TGI [41]: > 100 µM | TGI [57]: > 100 µM | TGI [58]: > 100 µM | TGI [44]: > 100 µM | TGI [45]: > 100 µM | TGI [46]: > 100 µM | TGI [47]: > 100 µM | TGI [48]: > 100 µM | TGI [49]: > 100 µM | TGI [50]: > 100 µM | TGI [52]: > 100 µM | TGI [54]: > 100 µM | TGI [55]: > 100 µM | TGI [56]: > 100 µM

c1ccc2c3ccn4ccc5c6ccccc6[nH]c5c4c-3nc2c1
TGI [2]: 2.68 µM | TGI [3]: 2.92 µM | TGI [4]: 0.879 µM | TGI [5]: 2.71 µM | TGI [6]: 3.02 µM | TGI [9]: 1.79 µM | TGI [10]: 2.93 µM | TGI [11]: 0.552 µM | TGI [12]: 2.43 µM | TGI [13]: 3.13 µM | TGI [14]: 0.315 µM | TGI [15]: 2.93 µM | TGI [16]: 3.02 µM | TGI [17]: 2.71 µM | TGI [18]: 4.2 µM | TGI [19]: 1.69 µM | TGI [20]: 2.83 µM | TGI [21]: 1.38 µM | TGI [22]: 1.31 µM | TGI [23]: 3.79 µM | TGI [24]: 2.65 µM | TGI [26]: 2.76 µM | TGI [28]: 2.89 µM | TGI [29]: 3 µM | TGI [30]: 0.63 µM | TGI [31]: 3.27 µM | TGI [32]: 2.73 µM | TGI [33]: 2.8 µM | TGI [34]: 4.25 µM | TGI [35]: 5.23 µM | TGI [36]: 2.98 µM | TGI [37]: 2.98 µM | TGI [38]: 4.27 µM | TGI [39]: 3.6 µM | TGI [40]: 2.69 µM | TGI [41]: 3.61 µM | TGI [42]: 0.625 µM | TGI [57]: 0.316 µM | TGI [58]: 3.2 µM | TGI [43]: 1.11 µM | TGI [45]: 0.638 µM | TGI [46]: 3.12 µM | TGI [47]: 2.74 µM | TGI [48]: 0.34 µM | TGI [49]: 3.51 µM | TGI [50]: 2.3 µM | TGI [53]: 3.06 µM | TGI [54]: 1.26 µM | TGI [55]: 2.72 µM | TGI [56]: 0.0992 µM
